Legend:
Format in all cases: biochemical
[1] = target: PI3Kα (Homo sapiens, UniProt P42336); experiment: PI3Kα enzyme activity inhibition IC50 evaluation assay (ADP-Glo Kinase Assay); conditions: ATP 25 μM, PIP2 50 μg/mL, 1 hour room temperature, read-out: PI3K-α IC50
Method: Effec Example 1 IC50 evaluation assay for PI3Kα, PI3Kδ, PI3Kβ and PI3Kγ enzyme activity inhibition
The experiment was performed using the ADP-Glo Kinase Assay kit, following the instructions. The following buffer solutions were prepared: 50 mM HEPES, pH 7.5, 3 mM MgCl2, 1 mM EGTA, 100 mM NaCl, 0.03% CHAPS, 2 mM DTT. The test compound samples were dissolved in DMSO and added to the screening system at a certain starting concentration such as 10 μM, 3-fold dilution, while setting up both DMSO control and no kinase control. The optimal concentrations of PI3Kα, PI3Kδ, PI3Kβ and PI3Kγ enzymes, substrate (PIP2) and ATP were prepared in buffer. The enzyme reaction system included: buffer, ATP 25 μM, kinase substrate (PIP2, 50 μg/mL), kinases [PI3Kα (0.15 μg/mL), PI3Kδ (1.2 μg/mL), PI3Kβ (0.3 μg/mL) and PI3Kγ (2.5 μg/mL)], etc. The reaction system was reacted at room temperature for 1 hour. The reaction was terminated by adding a termination reagent (ADP-Glo reagent, 5 μL), and the ADP content in the system was detected using a detection reagent (Kinase Detection Reagent, 10 μL). Signal data were collected using the Envision instrument. Calculate the percentage of (%) inhibition according to the following formula: % inhibition=(DMSO control signal value−sample signal value)/(DMSO control signal value−no-kinase control signal value). The IC50 value was obtained by fitting the curve using the formula Y=Bottom+(Top-Bottom)/(1+(IC50/X)^HillSlope).

[2] = target: T1, HDAC10 (Homo sapiens, UniProt Q969S8); experiment: HDAC10 enzyme activity inhibition IC50 evaluation experiment; conditions: HDAC10 10 nM, acetylated peptide 4 μM, 240 min, fluorescence
T1 sequence (Q969S8 1-669): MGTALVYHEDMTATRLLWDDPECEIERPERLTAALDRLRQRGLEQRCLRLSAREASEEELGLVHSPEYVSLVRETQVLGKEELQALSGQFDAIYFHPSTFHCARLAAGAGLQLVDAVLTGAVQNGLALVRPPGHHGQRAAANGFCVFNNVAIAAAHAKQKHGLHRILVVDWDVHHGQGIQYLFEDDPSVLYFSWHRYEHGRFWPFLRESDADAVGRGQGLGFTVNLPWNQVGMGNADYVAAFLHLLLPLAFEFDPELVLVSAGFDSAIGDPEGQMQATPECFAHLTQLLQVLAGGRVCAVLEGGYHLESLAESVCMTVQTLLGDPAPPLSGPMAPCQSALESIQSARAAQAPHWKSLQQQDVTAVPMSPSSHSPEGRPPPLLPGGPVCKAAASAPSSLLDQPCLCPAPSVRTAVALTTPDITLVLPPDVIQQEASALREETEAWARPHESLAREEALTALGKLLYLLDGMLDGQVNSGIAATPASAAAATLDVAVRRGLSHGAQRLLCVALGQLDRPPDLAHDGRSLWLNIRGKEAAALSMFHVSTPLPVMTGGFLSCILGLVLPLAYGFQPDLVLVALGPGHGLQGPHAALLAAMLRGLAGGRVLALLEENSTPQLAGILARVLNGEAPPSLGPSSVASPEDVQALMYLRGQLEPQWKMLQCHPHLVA
Method: (§1) Effect Example 3 HDAC8, HDAC10 enzyme activity inhibition IC50 evaluation experiment
(§2) Prepare buffer solution (HDAC8: 50 mM Tris 8.0, 2.7 mM KCl, 137 mM NaCl, 1 mM MgCl2, 1 mg/mL BSA; HDAC10: 50 mM Tris 7.5, 0.01% Tween-20, 50 mM NaCl, 0.05 mg/mL BSA) according to the kit instructions, prepared Enzyme solution, substrate solution (acetylated peptide) by using buffer. The test compound samples were dissolved in DMSO and was added to the screening system at a certain starting concentration such as 10 μM, 3-fold dilution, while setting up the DMSO control and the no-enzyme control. The enzyme reaction system includes: buffer, enzyme [final concentration: HDAC8=10 nM, HDAC10=10 nM], substrate (acetylated peptide) [final concentration: Peptide(HDAC8)=20 μM, Peptide(HDAC10)=4 μM], etc. The enzymes and compounds were reacted at room temperature for 15 minutes. After adding the substrate peptide the reaction system was reacted at room temperature for 240 min. Trypsin solution was added [final concentration: Trypsin=50p M] and incubation continued for 120 min. The fluorescence signal data (excitation wavelength 355 nM/emission wavelength 460 nm) was read with Envision instrument. Calculate the inhibition rate at this concentration based on the relative fluorescence units (RFU). The IC50 value was obtained by fitting a curve using the formula Y=Bottom+(Top-Bottom)/(1+(IC50/X)^HillSlope).

[3] = target: T2, HDAC8 (Homo sapiens, UniProt Q9BY41); experiment: HDAC8 enzyme activity inhibition IC50 evaluation experiment; conditions: HDAC8 10 nM, acetylated peptide 20 μM, 240 min, fluorescence
T2 sequence (Q9BY41 1-377): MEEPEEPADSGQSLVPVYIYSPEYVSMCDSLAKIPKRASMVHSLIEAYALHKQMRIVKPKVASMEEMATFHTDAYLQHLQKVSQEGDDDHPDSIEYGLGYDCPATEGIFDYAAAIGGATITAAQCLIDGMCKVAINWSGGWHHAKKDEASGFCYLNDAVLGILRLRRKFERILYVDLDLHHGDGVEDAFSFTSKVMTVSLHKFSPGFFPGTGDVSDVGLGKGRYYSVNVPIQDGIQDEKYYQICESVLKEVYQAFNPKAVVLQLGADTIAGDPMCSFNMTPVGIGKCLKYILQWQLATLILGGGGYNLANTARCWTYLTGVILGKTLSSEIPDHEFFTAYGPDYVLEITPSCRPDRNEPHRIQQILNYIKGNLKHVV
Method: as §1, §2

Chain of PI3Kα (P42336 whole entry, species assumed): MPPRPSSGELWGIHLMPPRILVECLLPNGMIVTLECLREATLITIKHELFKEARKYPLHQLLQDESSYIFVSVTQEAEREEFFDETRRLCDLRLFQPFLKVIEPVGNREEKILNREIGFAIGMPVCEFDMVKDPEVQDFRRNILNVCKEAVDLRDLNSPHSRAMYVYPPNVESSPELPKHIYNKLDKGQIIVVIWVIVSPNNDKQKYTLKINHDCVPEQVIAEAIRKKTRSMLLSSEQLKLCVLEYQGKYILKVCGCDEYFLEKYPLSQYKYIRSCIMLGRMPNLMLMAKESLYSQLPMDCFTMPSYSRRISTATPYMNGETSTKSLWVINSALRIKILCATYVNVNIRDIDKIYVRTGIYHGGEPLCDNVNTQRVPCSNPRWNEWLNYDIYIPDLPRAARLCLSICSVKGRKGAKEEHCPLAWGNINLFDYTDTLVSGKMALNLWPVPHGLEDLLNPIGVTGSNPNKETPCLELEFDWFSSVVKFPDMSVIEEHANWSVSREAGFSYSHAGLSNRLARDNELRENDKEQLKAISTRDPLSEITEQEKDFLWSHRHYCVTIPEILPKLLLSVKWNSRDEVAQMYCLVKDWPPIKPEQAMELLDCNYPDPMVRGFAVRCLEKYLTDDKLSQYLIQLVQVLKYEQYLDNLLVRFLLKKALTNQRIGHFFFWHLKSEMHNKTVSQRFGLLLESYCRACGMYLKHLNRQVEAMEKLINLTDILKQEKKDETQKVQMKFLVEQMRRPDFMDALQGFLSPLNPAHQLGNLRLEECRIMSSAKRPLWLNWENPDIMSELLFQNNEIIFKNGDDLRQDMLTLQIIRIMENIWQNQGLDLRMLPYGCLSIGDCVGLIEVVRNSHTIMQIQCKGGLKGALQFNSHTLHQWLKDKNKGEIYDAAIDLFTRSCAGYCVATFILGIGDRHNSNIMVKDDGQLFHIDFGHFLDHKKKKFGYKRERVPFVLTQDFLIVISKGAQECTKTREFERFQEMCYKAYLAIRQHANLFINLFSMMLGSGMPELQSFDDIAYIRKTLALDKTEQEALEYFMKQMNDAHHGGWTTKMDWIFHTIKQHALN
Chain of PI3Kα (P27986 whole entry partner, species assumed): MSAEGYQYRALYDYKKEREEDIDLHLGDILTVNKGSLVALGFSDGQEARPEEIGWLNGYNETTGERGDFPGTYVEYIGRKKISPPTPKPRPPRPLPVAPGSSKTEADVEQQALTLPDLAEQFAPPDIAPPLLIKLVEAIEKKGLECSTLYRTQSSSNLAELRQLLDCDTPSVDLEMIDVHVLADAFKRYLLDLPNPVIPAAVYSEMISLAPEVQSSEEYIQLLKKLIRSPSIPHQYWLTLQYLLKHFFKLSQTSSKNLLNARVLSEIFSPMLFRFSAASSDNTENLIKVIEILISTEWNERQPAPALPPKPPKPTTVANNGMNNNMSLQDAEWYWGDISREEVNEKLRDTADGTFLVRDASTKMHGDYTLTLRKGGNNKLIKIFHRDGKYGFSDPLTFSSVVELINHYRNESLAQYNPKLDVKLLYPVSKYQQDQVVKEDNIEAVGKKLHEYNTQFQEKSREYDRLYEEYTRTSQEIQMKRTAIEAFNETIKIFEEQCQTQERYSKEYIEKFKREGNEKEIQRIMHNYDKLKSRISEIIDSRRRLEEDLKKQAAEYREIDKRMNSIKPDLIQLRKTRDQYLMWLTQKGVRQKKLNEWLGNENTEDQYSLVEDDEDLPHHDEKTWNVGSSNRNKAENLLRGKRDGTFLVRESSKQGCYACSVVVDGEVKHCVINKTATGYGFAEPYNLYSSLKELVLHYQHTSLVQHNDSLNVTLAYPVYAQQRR

| IC50 [1] [µM] | IC50 [2] [µM] | IC50 [3] [µM] | Structure (SMILES) |
| --- | --- | --- | --- |
| 0.1 to 1 | 0.1 to 1 |  | COc1ncc(-c2nc(N3CCOCC3)nc3c(CN4CCN(c5ncc(C(=O)NO)cn5)CC4)cc(F)cc23)cc1NS(C)(=O)=O [Compound 7] |
| 1 to 10 | 0.1 to 1 |  | COc1ncc(-c2nc(N3CCOCC3)nc3c(OCCCCCCC(=O)NO)cc(F)cc23)cc1NS(C)(=O)=O [Compound 9] |
| 0.1 to 1 | 0.1 to 1 | 0.1 to 1 | COc1ncc(-c2nc(N3CCOCC3)nc3c(OC4CCN(c5ncc(C(=O)NO)cc5F)CC4)cc(F)cc23)cc1NS(C)(=O)=O [Compound 30] |
|  | 0.01 to 0.1 | 0.1 to 1 | COc1ncc(-c2nc(N3CCOCC3)nc3c(OC4CCN(c5ncc(C(=O)NO)cn5)CC4)cc(F)cc23)cc1NS(C)(=O)=O [Compound 39] |
|  |  | 1 to 10 | COc1ncc(-c2nc(N3CCOCC3)nc3c(OC4CCN(c5ccc(C(=O)NO)cn5)CC4)cc(F)cc23)cc1NS(C)(=O)=O [Compound 40] |

Source: US20240217947A1, “Morpholinylquinazoline Compound, Pharmaceutical compositions thereof and Use Thereof” (SHANGHAI YINGLI PHARMACEUTICAL CO., LTD, priority 2022, published 2024)
